Test results as given in patent US12202835B2, “Substituted aromatic ring-linked dioxinoquinazolines and dioxinoquinolines as kinase inhibitors” (BEIJING SCITECH-MQ PHARMACEUTICALS LIMITED, priority 2018, dated 2025).

Experiments:
c-MET kinase = c-MET kinase (Homo sapiens (Human), UniProt P08581); experiment: Assay of small molecular compounds for inhibiting the activity of c-MET kinase (LANCE TR-FRET); format: biochemical; details: read-out: CMET IC50
Procedure, shortened: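 Eleven final concentrations from 2500 nM down to 0.042 nM, in 4% DMSO, were tested against human c-MET (2× stock 2 nM), with compound and enzyme premixed for 5 min. The phosphorylation reaction used 4× stock of 400 nM ULight-JAK-1 peptide and 40 μM ATP for 60 min at room temperature, then stop and detection steps. TR-FRET percent inhibition against positive and negative controls gave the IC50.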

MER kinase = MER kinase (Homo sapiens (Human), UniProt Q12866); experiment: Assay of small molecular compounds for inhibiting the activity of MER kinase (LANCE TR-FRET); format: biochemical
Procedure, shortened: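 LANCE TR-FRET readout of ULight-poly GT phosphorylation by MER kinase; compound final range 0.042-2500 nM, 3-fold steps, 5 min enzyme preincubation. Reaction 60 min at room temperature in the dark with substrate/ATP (4× at 200 nM/20 μM), 1% DMSO, then stopped and developed 60 min; IC50 by curve fit.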

c-MET kinase, sequence (P08581 25-1390): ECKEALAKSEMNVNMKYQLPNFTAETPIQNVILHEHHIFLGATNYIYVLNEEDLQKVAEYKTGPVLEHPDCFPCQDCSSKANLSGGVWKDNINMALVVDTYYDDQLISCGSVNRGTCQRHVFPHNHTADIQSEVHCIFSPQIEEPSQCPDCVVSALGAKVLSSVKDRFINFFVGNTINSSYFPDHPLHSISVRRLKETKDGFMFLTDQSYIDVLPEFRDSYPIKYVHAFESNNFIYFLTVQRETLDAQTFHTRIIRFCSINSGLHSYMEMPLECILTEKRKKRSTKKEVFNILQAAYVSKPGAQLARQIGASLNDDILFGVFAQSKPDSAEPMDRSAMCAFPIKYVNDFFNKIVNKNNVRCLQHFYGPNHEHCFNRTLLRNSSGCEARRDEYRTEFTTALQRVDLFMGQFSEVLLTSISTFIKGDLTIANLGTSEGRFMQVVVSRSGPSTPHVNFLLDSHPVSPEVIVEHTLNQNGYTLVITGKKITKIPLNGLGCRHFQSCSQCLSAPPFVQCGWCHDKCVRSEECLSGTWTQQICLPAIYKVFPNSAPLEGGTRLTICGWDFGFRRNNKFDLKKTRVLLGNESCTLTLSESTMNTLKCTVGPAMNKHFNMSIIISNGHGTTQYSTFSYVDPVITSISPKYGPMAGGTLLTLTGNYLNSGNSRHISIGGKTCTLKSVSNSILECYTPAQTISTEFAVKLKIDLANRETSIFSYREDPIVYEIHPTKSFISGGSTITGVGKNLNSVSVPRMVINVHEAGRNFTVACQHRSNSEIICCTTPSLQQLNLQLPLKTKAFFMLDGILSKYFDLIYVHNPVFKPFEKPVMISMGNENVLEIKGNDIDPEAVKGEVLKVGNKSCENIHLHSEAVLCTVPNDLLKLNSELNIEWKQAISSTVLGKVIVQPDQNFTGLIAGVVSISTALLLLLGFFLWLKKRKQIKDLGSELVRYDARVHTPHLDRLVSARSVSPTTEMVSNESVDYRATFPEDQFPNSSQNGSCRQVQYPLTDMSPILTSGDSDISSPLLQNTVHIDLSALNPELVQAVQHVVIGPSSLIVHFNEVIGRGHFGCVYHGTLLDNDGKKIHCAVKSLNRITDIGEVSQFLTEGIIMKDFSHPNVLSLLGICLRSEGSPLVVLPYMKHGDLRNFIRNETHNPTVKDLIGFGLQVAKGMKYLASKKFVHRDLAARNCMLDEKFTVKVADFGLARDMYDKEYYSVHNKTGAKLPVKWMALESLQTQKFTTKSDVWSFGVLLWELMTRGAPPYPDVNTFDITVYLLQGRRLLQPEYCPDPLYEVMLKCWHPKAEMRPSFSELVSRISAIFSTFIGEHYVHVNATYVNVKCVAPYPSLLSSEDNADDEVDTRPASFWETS
MER kinase, sequence (Q12866 21-999): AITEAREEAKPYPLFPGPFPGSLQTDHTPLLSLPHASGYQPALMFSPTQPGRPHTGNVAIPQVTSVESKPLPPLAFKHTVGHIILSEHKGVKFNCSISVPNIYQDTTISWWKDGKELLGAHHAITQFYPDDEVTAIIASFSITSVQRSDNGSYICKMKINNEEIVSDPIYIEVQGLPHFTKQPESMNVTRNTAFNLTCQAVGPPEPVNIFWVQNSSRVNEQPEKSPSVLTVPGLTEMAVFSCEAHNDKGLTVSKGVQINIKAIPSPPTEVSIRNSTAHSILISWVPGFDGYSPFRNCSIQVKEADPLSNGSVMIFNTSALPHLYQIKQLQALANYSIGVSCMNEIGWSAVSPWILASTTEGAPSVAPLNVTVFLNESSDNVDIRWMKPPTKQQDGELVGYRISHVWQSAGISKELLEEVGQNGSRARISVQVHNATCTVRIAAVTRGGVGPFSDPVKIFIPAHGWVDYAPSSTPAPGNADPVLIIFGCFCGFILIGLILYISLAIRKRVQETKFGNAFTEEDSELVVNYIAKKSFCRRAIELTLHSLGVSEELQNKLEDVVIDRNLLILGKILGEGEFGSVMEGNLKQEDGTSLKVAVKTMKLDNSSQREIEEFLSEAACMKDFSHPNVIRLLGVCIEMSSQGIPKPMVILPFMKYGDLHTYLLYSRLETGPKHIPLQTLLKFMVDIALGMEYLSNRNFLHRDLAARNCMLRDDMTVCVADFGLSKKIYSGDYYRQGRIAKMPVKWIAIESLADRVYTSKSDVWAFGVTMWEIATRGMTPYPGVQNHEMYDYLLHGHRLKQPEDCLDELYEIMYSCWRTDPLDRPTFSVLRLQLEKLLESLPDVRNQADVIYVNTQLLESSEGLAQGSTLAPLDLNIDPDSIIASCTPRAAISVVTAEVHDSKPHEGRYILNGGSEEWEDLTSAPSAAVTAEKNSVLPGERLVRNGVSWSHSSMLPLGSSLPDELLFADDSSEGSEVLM

Row | SMILES | IC50 (c-MET kinase) | IC50 (MER kinase)
1 | CC(C)n1cc(C(=O)Nc2ccc(Oc3ccnc4cc(OCCCN5CCCCC5)c5c(c34)OCCO5)c(F)c2)c(=O)n(-c2ccc(F)cc2)c1=O [Example 40, N-(3-fluoro-4-((5-(3-(piperidin-1-yl)propoxy)-2,3-dihydro-[1,4]dioxino[2,3-f]quinolin-10-yl)oxy)phenyl)-3-(4-fluorophenyl)-1-isopropyl-2,4-dioxo-1,2,3,4-tetrahydropyrimidine-5-carboxamide] | ≤ 50 nM | ≤ 50 nM
2 | CC(C)n1cc(C(=O)Nc2ccc(Oc3ccnc4cc(OCCCN5CCC(C)(O)CC5)c5c(c34)OCCO5)c(F)c2)c(=O)n(-c2ccc(F)cc2)c1=O [Example 94, N-(3-fluoro-4-((5-(3-(4-methyl-4-hydroxypiperidin-1-yl)propoxy)-2,3-dihydro-[1,4]dioxino[2,3-f]quinolin-10-yl)oxy)phenyl)-3-(4-fluorophenyl)-1-isopropyl-2,4-dioxo-1,2,3,4-tetrahydropyrimidine-5-carboxamide] | ≤ 50 nM | ≤ 50 nM
3 | COCCN(C)CCCOc1cc2nccc(Oc3ccc(NC(=O)c4cn(C(C)C)c(=O)n(-c5ccc(F)cc5)c4=O)cc3F)c2c2c1OCCO2 [Example 95, N-(3-fluoro-4-((5-(3-((2-methoxyethyl)(methyl)amino)propoxy)-2,3-dihydro-[1,4]dioxino[2,3-f]quinolin-10-yl)oxy)phenyl)-3-(4-fluorophenyl)-1-isopropyl-2,4-dioxo-1,2,3,4-tetrahydropyrimidine-5-carboxamide] | ≤ 50 nM | ≤ 50 nM
4 | COc1cc2nccc(Oc3ccc(NC(=O)c4cn(CC(=O)O)c(=O)n(-c5ccc(F)cc5)c4=O)cc3F)c2c2c1OCCO2 [Example 104, 2-(5-((3-fluoro-4-((5-methoxy-2,3-dihydro-[1,4]dioxino[2,3-f]quinolin-10-yl)oxy)phenyl)carbamoyl)-3-(4-fluorophenyl)-2,4-dioxo-3,4-dihydropyrimidin-1(2H)-yl)acetic acid] | ≤ 50 nM | ≤ 50 nM
5 | CCOc1ccn(Cc2ccccc2)c(=O)c1C(=O)Nc1ccc(Oc2ccnc3cc(OC)c4c(c23)OCCO4)c(F)c1 [Example 117, N-(3-fluoro-4-((5-methoxy-2,3-dihydro-[1,4]dioxino[2,3-f]quinolin-10-yl)oxy)phenyl)-2-oxo-4-ethoxy-1-benzyl-1,2-dihydropyridin-3-carboxamide] | ≤ 50 nM | ≤ 50 nM
6 | CCOc1ccn(-c2ccc(F)cc2)c(=O)c1C(=O)Nc1ccc(Oc2ccnc3cc(OCC(C)(C)O)c4c(c23)OCCO4)c(F)c1 [Example 120, N-(3-fluoro-4-((5-(2-hydroxy-2-methylpropoxy)-2,3-dihydro-[1,4]dioxino[2,3-f]quinolin-10-yl)oxy)phenyl)-4-ethoxy-1-(4-fluorophenyl)-2-oxo-1,2-dihydropyridine-3-carboxamide] | ≤ 50 nM | ≤ 50 nM
7 | Cn1cc(C(=O)Nc2ccc(Oc3ccnc4cc(OCC(C)(C)O)c5c(c34)OCCO5)c(F)c2)c(=O)n(-c2ccc(F)cc2)c1=O [Example 121, N-(3-fluoro-4-((5-(2-hydroxy-2-methylpropoxy)-2,3-dihydro-[1,4]dioxino[2,3-f]quinolin-10-yl)oxy)phenyl)-3-(4-fluorophenyl)-1-methyl-2,4-dioxo-1,2,3,4-tetrahydropyrimidine-5-carboxamide] | 50 to 500 nM | ≤ 50 nM
8 | CCOc1ccn(-c2ccc(F)cc2)c(=O)c1C(=O)Nc1ccc(Oc2ccnc3cc(OC)c4c(c23)OCCO4)cc1Cl [Example 126, N-(2-chloro-4-((5-methoxy-2,3-dihydro-[1,4]dioxino[2,3-f]quinolin-10-yl)oxy)phenyl)-1-(4-fluorophenyl)-4-ethoxy-2-oxo-1,2-dihydropyridine-3-carboxamide] | ≤ 50 nM | ≤ 50 nM
9 | CCOc1cc2nccc(Oc3ccc(NC(=O)c4cccn(-c5ccc(F)cc5)c4=O)c(Cl)c3)c2c2c1OCCO2 [Example 127, N-(2-chloro-4-((5-ethoxy-2,3-dihydro-[1,4]dioxino[2,3-f]quinolin-10-yl)oxy)phenyl)-1-(4-fluorophenyl)-2-oxo-1,2-dihydropyridine-3-carboxamide] | ≤ 50 nM | ≤ 50 nM
10 | CCOc1cc2nccc(Oc3ccc(NC(=O)c4c(OC)ccn(-c5ccc(F)cc5)c4=O)c(Cl)c3)c2c2c1OCCO2 [Example 128, N-(2-chloro-4-((5-ethoxy-2,3-dihydro-[1,4]dioxino[2,3-f]quinolin-10-yl)oxy)phenyl)-1-(4-fluorophenyl)-4-methoxy-2-oxo-1,2-dihydropyridine-3-carboxamide] | ≤ 50 nM | ≤ 50 nM
11 | CCOc1cc2nccc(Oc3ccc(NC(=O)c4c(OCC)ccn(-c5ccc(F)cc5)c4=O)c(Cl)c3)c2c2c1OCCO2 [Example 130, N-(2-chloro-4-((5-ethoxy-2,3-dihydro-[1,4]dioxino[2,3-f]quinolin-10-yl)oxy)phenyl)-1-(4-fluorophenyl)-4-ethoxy-2-oxo-1,2-dihydropyridine-3-carboxamide] | ≤ 50 nM | ≤ 50 nM
12 | COc1ccn(-c2ccc(F)cc2)c(=O)c1C(=O)Nc1ccc(Oc2ccnc3cc(OCCCC#N)c4c(c23)OCCO4)cc1Cl [Example 132, N-(2-chloro-4-((5-(3-cyanopropoxy)-2,3-dihydro-[1,4]dioxino[2,3-f]quinolin-10-yl)oxy)phenyl)-1-(4-fluorophenyl)-4-methoxy-2-oxo-1,2-dihydropyridine-3-carboxamide] | ≤ 50 nM | ≤ 50 nM
13 | CCOc1ccn(-c2ccc(F)cc2)c(=O)c1C(=O)Nc1ccc(Oc2ccnc3cc(OCCCC#N)c4c(c23)OCCO4)cc1Cl [Example 134, N-(2-chloro-4-((5-(3-cyanopropoxy)-2,3-dihydro-[1,4]dioxino[2,3-f]quinolin-10-yl)oxy)phenyl)-1-(4-fluorophenyl)-4-ethoxy-2-oxo-1,2-dihydropyridine-3-carboxamide] | ≤ 50 nM | ≤ 50 nM
14 | O=C(Nc1ccc(Oc2ccnc3cc(OCCCN4CCCCC4)c4c(c23)OCCO4)cc1Cl)c1cccn(-c2ccc(F)cc2)c1=O [Example 135, N-(2-chloro-4-((5-((3-piperidin-1-yl)propoxy)-2,3-dihydro-[1,4]dioxino[2,3-f]quinolin-10-yl)oxy)phenyl)-1-(4-fluorophenyl)-2-oxo-1,2-dihydropyridine-3-carboxamide] | ≤ 50 nM | ≤ 50 nM
15 | COc1ccn(-c2ccc(F)cc2)c(=O)c1C(=O)Nc1ccc(Oc2ccnc3cc(OCCCN4CCCCC4)c4c(c23)OCCO4)cc1Cl [Example 136, N-(2-chloro-4-((5-((3-piperidin-1-yl)propoxy)-2,3-dihydro-[1,4]dioxino[2,3-f]quinolin-10-yl)oxy)phenyl)-1-(4-fluorophenyl)-4-methoxy-2-oxo-1,2-dihydropyridine-3-carboxamide] | ≤ 50 nM | ≤ 50 nM
16 | CCOc1ccn(-c2ccc(F)cc2)c(=O)c1C(=O)Nc1ccc(Oc2ccnc3cc(OCCCN4CCCCC4)c4c(c23)OCCO4)cc1Cl [Example 138, N-(2-chloro-4-((5-((3-piperidin-1-yl)propoxy)-2,3-dihydro-[1,4]dioxino[2,3-f]quinolin-10-yl)oxy)phenyl)-1-(4-fluorophenyl)-4-ethoxy-2-oxo-1,2-dihydropyridine-3-carboxamide] | ≤ 50 nM | ≤ 50 nM
17 | CC(C)(O)COc1cc2nccc(Oc3ccc(NC(=O)c4cccn(-c5ccc(F)cc5)c4=O)c(Cl)c3)c2c2c1OCCO2 [Example 139, N-(2-chloro-4-((5-(2-hydroxy-2-methylpropoxy)-2,3-dihydro-[1,4]dioxino[2,3-f]quinolin-10-yl)oxy)phenyl)-1-(4-fluorophenyl)-2-oxo-1,2-dihydropyridine-3-carboxamide] | ≤ 50 nM | ≤ 50 nM
18 | COc1ccn(-c2ccc(F)cc2)c(=O)c1C(=O)Nc1ccc(Oc2ccnc3cc(OCC(C)(C)O)c4c(c23)OCCO4)cc1Cl [Example 140, N-(2-chloro-4-((5-(2-hydroxy-2-methylpropoxy)-2,3-dihydro-[1,4]dioxino[2,3-f]quinolin-10-yl)oxy)phenyl)-1-(4-fluorophenyl)-4-methoxy-2-oxo-1,2-dihydropyridine-3-carboxamide] | ≤ 50 nM | ≤ 50 nM
19 | CCOc1ccn(-c2ccc(F)cc2)c(=O)c1C(=O)Nc1ccc(Oc2ccnc3cc(OCC(C)(C)O)c4c(c23)OCCO4)cc1Cl [Example 142, N-(2-chloro-4-((5-(2-hydroxy-2-methylpropoxy)-2,3-dihydro-[1,4]dioxino[2,3-f]quinolin-10-yl)oxy)phenyl)-1-(4-fluorophenyl)-4-ethoxy-2-oxo-1,2-dihydropyridine-3-carboxamide] | ≤ 50 nM | ≤ 50 nM
20 | O=C(Nc1ccc(Oc2ccnc3cc(OCCCN4CCOCC4)c4c(c23)OCCO4)cc1Cl)c1cccn(-c2ccc(F)cc2)c1=O [Example 143, N-(2-chloro-4-((5-(3-morpholinopropoxy)-2,3-dihydro-[1,4]dioxino[2,3-f]quinolin-10-yl)oxy)phenyl)-1-(4-fluorophenyl)-2-oxo-1,2-dihydropyridine-3-carboxamide] | ≤ 50 nM | ≤ 50 nM
21 | O=C(Nc1ccc(Oc2ccnc3ccc4c(c23)OCCO4)c(F)c1)c1cccn(-c2ccc(F)cc2)c1=O [Example 169, N-(4-((2,3-dihydro-[1,4]dioxino[2,3-f]quinolin-10-yl)oxy)-3-fluorophenyl)-1-(4-fluorophenyl)-2-oxo-1,2-dihydropyridine-3-carboxamide] | ≤ 50 nM | ≤ 50 nM
22 | O=C(Nc1ccc(Oc2ccnc3ccc4c(c23)OCCO4)cc1F)c1cccn(-c2ccc(F)cc2)c1=O [Example 170, N-(4-((2,3-dihydro-[1,4]dioxino[2,3-f]quinolin-10-yl)oxy)-2-fluorophenyl)-1-(4-fluorophenyl)-2-oxo-1,2-dihydropyridine-3-carboxamide] | 50 to 500 nM | ≤ 50 nM
